From ChEMBL document CHEMBL4808237, “Ginkgonitroside, a new nitrophenyl glycoside and bioactive compounds from Ginkgo biloba leaves controlling adipocyte and osteoblast differentiation” (2021)

Key:
[1] = Inhibition of adipogenesis in mouse C3H10T1/2 cells assessed as lipid droplet formation at 20 uM by Oil red O staining relative to control; type: functional, C3H 10T1/2; design: scale not given: the % may be the effect or the level left
[2] = system: C3H 10T1/2; test: Induction of differentiation in mouse C3H10T1/2 cells assessed as increase […] by measuring ALP activity at 20 uM relative to control; type: functional

O=[N+]([O-])c1ccc(O[C@@H]2O[C@H](CO)[C@@H](O)[C@H](O)[C@H]2O)cc1
Activity [1]: 17%

Cc1cc([N+](=O)[O-])ccc1O[C@@H]1O[C@H](CO)[C@@H](O)[C@H](O)[C@H]1O
Activity [1]: 17%

COC(=O)c1ccc(O[C@@H]2O[C@H](CO)[C@@H](O)[C@H](O)[C@H]2O)cc1
Activity [1]: 17%

COc1cc([C@@H]2OC[C@@H]3[C@H]2CO[C@H]3c2ccc(O[C@@H]3O[C@H](CO)[C@@H](O)[C@H](O)[C@H]3O)c(OC)c2)ccc1O
fold change (FC) [2]: 1.3
